This note sets out measurements from US8802678B2, “Carbonylated (aza) cyclohexanes as dopamine D3 receptor ligands” (Bioprojet, priority 2006, dated 2014).

Each structure is given as a SMILES string.

What is called melting point is the temperature, or range, at which the solid turns liquid.

Compound `N#CCCC(=O)N[C@H]1CC[C@H](CCN2CCN(c3cc(C(F)(F)F)cc(C(F)(F)F)c3)CC2)CC1` [Example 213, N-(4-{2-[4-(3,5-Bistrifluoromethylphenyl)piperazin-1-yl]ethyl}cyclohexyl)-3-cyanopropanamide] showed a melting point of 158 to 159 °C.
The value for `Cc1ccc(N2CCN(CC[C@H]3CC[C@H](NC(=O)CCCC#N)CC3)CC2)cc1F` [Example 538, 4-Cyano-N-(4-{2-[4-(3-fluoro-4-methylphenyl)piperazin-1-yl]ethyl}cyclohexyl)butanamide] was 180 °C; that for `Cc1cc(C)cc(C2=CCN(CC[C@H]3CC[C@@H](NC(=O)CC#N)CC3)CC2)c1.Cl` was 220 °C; that for `COCCCC(=O)N[C@H]1CC[C@H](CCN2CCN(c3ccc(F)c(C#N)c3F)CC2)CC1` [Example 692, N-(4-{2-[4-(3-Cyano-2,4-difluorophenyl)piperazin-1-yl]ethyl}cyclohexyl)-4-methoxybutanamide] was 211 °C.
`N#CCC(=O)N[C@H]1CC[C@H](CCN2CCN(c3cccc(C(F)F)c3)CC2)CC1` [Example 354, 2-Cyano-N-(4-{2-[4-(3-difluoromethylphenyl)piperazin-1-yl]ethyl}cyclohexyl)acetamide] registered a melting point of 185 °C.
Compound `CC(=O)CN1CCC(CCN2CC=C(c3ccccc3C)CC2)CC1.Cl.Cl` registered a melting point of 292 °C.
On to `CCOCC(=O)N[C@H]1CC[C@H](CCN2CC=C(c3cccc(C(F)(F)F)c3)CC2)CC1`, for which the melting point was 75 °C.
The value for `CC(=O)CN1CCC(CCN2CCN(c3cccc(C)c3)CC2)CC1.Cl.Cl` was 260 °C; that for `N#CCC(=O)N[C@H]1CC[C@H](CCN2CCN(c3cccc(OC(F)(F)F)c3)CC2)CC1` [Example 157, 2-Cyano-N-(4-{2-[4-(3-trifluoromethoxyphenyl)piperazin-1-yl]ethyl}cyclohexyl)acetamide] was 173 to 174 °C.
To `Cc1ccccc1C1=CCN(CC[C@H]2CC[C@H](NC(=O)CC#N)CC2)CC1` belongs 166 °C; to `COCC(=O)N1CCC(CCN2CCN(c3cccc(C(F)(F)F)c3)CC2)CC1.Cl`, 150 °C; to `CCOCC(=O)N[C@H]1CC[C@H](CCN2CCN(c3cccc(C#N)c3)CC2)CC1` [Example 78, N-(4-{2-[4-(3-Cyanophenyl)-piperazin-1-yl]ethyl}cyclohexyl)-2-ethoxyacetamide trans/cis 75/25], 90 °C.
The value for `Cc1cccc(C2=CCN(CC[C@H]3CC[C@H](NC(=O)C4=CCCC4)CC3)CC2)c1C#N` was 183 °C; that for `COCC(=O)N[C@H]1CC[C@H](CCN2CCN(c3cc(C(F)(F)F)ccc3F)CC2)CC1` [Example 701, N-(4-{2-[4-(2-Fluoro-5-trifluoromethylphenyl)piperazin-1-yl]ethyl}cyclohexyl)-2-methoxyacetamide] was 139 °C; that for `N#CCC(=O)N[C@H]1CC[C@H](CCN2CCN(c3cccc(F)c3C#N)CC2)CC1` [Example 208] was 187 to 189 °C.
`COc1ccc(Cl)cc1N1CCN(CCC2CCN(CC(C)=O)CC2)CC1.Cl.Cl` gave a melting point of 275 °C.
Turning to `CCOCC(=O)N[C@H]1CC[C@H](CCN2CCN(c3ccccc3C#N)CC2)CC1` [Example 73, N-(4-{2-[4-(2-Cyanophenyl)-piperazin-1-yl]ethyl}cyclohexyl)-2-ethoxyacetamide], the melting point came to 96 °C.
The value for `N#CCC(=O)N[C@H]1CC[C@H](CCN2CCN(c3cc(F)c(F)cc3F)CC2)CC1` [Example 472, 2-Cyano-N-(4-{2-[4-(2,4,5-trifluorophenyl)piperazin-1-yl]ethyl}cyclohexyl)acetamide] was 188 °C; that for `N#CCCCC(=O)N[C@H]1CC[C@H](CCN2CCN(c3cccc4ncccc34)CC2)CC1` [Example 321, 4-Cyano-N-{4-[2-(4-quinolin-5-ylpiperazin-1-yl)ethyl]cyclohexyl}butanamide] was 155 °C.
To `CCc1cccc(N2CCN(CC[C@H]3CC[C@H](NC(=O)C4=CCCCO4)CC3)CC2)c1` [Example 561, 5,6-Dihydro-4H-pyran-2-carboxylic acid (4-{2-[4-(3-ethylphenyl)piperazin-1-yl]ethyl}cyclohexyl) amide] belongs 135 °C; to `N#CCC(=O)N[C@H]1CC[C@H](CCN2CCN(c3cccc(CO)c3)CC2)CC1` [Example 268, 2-Cyano-N-(4-{2-[4-(3-hydroxymethylphenyl)piperazin-1-yl]ethyl}cyclohexyl)acetamide], 180 °C; to `COCC(=O)N[C@H]1CC[C@H](CCN2CCC(c3cccc(C)c3C#N)CC2)CC1` [Example 55, N-(4-{2-[4-(2-Cyano-3-methylphenyl)piperidin-1-yl]ethyl}cyclohexyl)-2-methoxyacetamide], 141 °C.
Compound `N#CCCCC(=O)N[C@H]1CC[C@H](CCN2CCN(c3csc4cc(C(F)(F)F)ccc34)CC2)CC1` [Example 253, 4-Cyano-N-(4-{2-[4-(6-trifluoromethylbenzo[b]thiophen-3-yl)piperazin-1-yl]ethyl}cyclohexyl)butanamide] registered a melting point of 169 °C.
`Cl.O=C(CC(F)(F)F)N1CCC(CCN2CCN(c3cccc4c3CCC4)CC2)CC1` registered a melting point of 206 °C.
In turn, `CC(=O)CN1CCC(CCN2CCN(c3ccc(Cl)cc3)CC2)CC1.Cl.Cl` registered a melting point of 277 °C.
The value for `CCc1ccccc1C1=CCN(CC[C@H]2CC[C@H](NC(=O)CC#N)CC2)CC1` was 158 °C; that for `O=C(N[C@H]1CC[C@H](CCN2CCN(c3cccc(C(F)(F)F)c3)CC2)CC1)C(F)F` [Example 44, 2,2-Difluoro-N-(4-{2-[4-(3-trifluoromethylphenyl)piperazin-1-yl]ethyl}cyclohexyl)acetamide] was 128 °C.
`CC(=O)CN1CCC(CCN2CC=C(c3cc(C(F)(F)F)ccc3F)CC2)CC1.Cl.Cl` had a melting point of 282 °C.
To `CSc1cccc(N2CCN(CC[C@H]3CC[C@H](NC(=O)CCCC#N)CC3)CC2)c1` [Example 238, 4-Cyano-N-(4-{2-[4-(3-methylsulfanylphenyl)piperazin-1-yl]ethyl}cyclohexyl)butanamide] belongs 127 °C.
To `CC(=O)CN1CCC(CCN2CCN(c3cc(C)ccc3Cl)CC2)CC1.Cl.Cl` belongs 283 °C; to `N#CCCCC(=O)N[C@H]1CC[C@H](CCN2CCN(c3cc(Cl)cc(C(F)(F)F)c3)CC2)CC1` [Example 529, N-(4-{2-[4-(3-Chloro-5-trifluoromethylphenyl)piperazin-1-yl]ethyl}cyclohexyl)-4-cyanobutanamide], 152 °C; to `O=C(CC(F)(F)F)N[C@H]1CC[C@H](CCN2CCN(c3ccc(F)cc3)CC2)CC1` [Example 284, 3,3,3-Trifluoro-N-(4-{2-[4-(4-fluorophenyl)piperazin-1-yl]ethyl}cyclohexyl)propanamide], 200 °C.
The value for `O=C(N[C@H]1CC[C@H](CCN2CCN(c3ccccc3F)CC2)CC1)C1=CCCC1` [Example 68, Cyclopent-1-enecarboxylic acid (4-{2-[4-(2-fluorophenyl)-piperazin-1-yl]ethyl}-cyclohexyl)amide] was 210 to 211 °C.
Take `N#CCCCC(=O)N[C@H]1CC[C@H](CCN2CCN(c3cccc(Cl)c3C#N)CC2)CC1` [Example 393, N-(4-{2-[4-(3-Chloro-2-cyanophenyl)piperazin-1-yl]ethyl}cyclohexyl)-4-cyanobutanamide]: the melting point turned out to be 189 °C.
To `CS(=O)(=O)c1cccc(N2CCN(CC[C@H]3CC[C@H](NC(=O)CC#N)CC3)CC2)c1` [Example 351, 2-Cyano-N-(4-{2-[4-(3-methanesulfonylphenyl)piperazin-1-yl]ethyl}cyclohexyl)acetamide] belongs 195 °C; to `Cc1ccc(N2CCN(CC[C@H]3CC[C@H](NC(=O)CC#N)CC3)CC2)cc1C` [Example 340, 2-Cyano-N-(4-{2-[4-(3,4-dimethylphenyl)piperazin-1-yl]ethyl}cyclohexyl)acetamide], 210 °C.
To `O=C(N[C@H]1CC[C@H](CCN2CCN(c3cccc(F)c3)CC2)CC1)C1CC=CC1` [Example 408, Cyclopent-3-enecarboxylic acid (4-{2-[4-(3-fluorophenyl)-piperazin-1-yl]ethyl}cyclohexyl) amide] belongs 215 °C; to `CCOCC(=O)N[C@H]1CC[C@H](CCN2CCN(c3cccc(CC)c3)CC2)CC1` [Example 563, 2-Ethoxy-N-(4-{2-[4-(3-ethylphenyl)piperazin-1-yl]ethyl}cyclohexyl)acetamide], 100 °C; to `Cc1cccc(N2CCN(CC[C@H]3CC[C@H](NC(=O)CC#N)CC3)CC2)c1C#N` [Example 114, 2-Cyano-N-(4-{2-[4-(2-cyano-3-methylphenyl)piperazin-1-yl]ethyl}cyclohexyl)acetamide], 221 °C.
The value for `CC(=O)CN1CCC(CCN2CC=C(c3ccc(Cl)cc3)CC2)CC1` was 101 °C.
With `COc1ccc(Cl)cc1N1CCN(CC[C@H]2CC[C@H](NC(=O)CC#N)CC2)CC1` [Example 176, N-(4-{2-[4-(5-Chloro-2-methoxyphenyl)piperazin-1-yl]ethyl}cyclohexyl)-2-cyanoacetamide], the melting point came to 180 °C.
The value for `CC(=O)C(=O)N1CCC(CCN2CCN(c3cccc4c3CCC4)CC2)CC1.Cl` was 225 °C; that for `N#CCCCC(=O)N[C@H]1CC[C@H](CCN2CCN(c3cc(C(F)(F)F)cc(C(F)(F)F)c3)CC2)CC1` [Example 184, N-(4-{2-[4-(3,5-Bistrifluoromethylphenyl)piperazin-1-yl]ethyl}cyclohexyl)-4-cyanobutanamide] was 166 °C.
To `CC(=O)CN1CCC(CCN2CCN(c3cc(F)cc(Cl)c3)CC2)CC1` [Example 581, 1-(4-{2-[4-(3-Chloro-5-fluorophenyl)piperazin-1-yl]ethyl}piperidin-1-yl)propan-2-one] belongs 107 °C; to `CC(=O)CN1CCC(CCN2CCN(c3ccc(Cl)cc3F)CC2)CC1.Cl.Cl`, 206 °C.
